{"source": "patent US12473258B2", "about": "“Crystal form of pyridinylphenyl compound and preparation method therefor” (ZHUHAI UNITED LABORATORIES CO., LTD., priority 2020, dated 2025)", "key": {"[1]": {"assay": "Tolerability of eye drops after administration in animals", "format": "in vivo", "conditions": "eye drops with the highest concentration"}, "[2]": {"test_system": "dry eye model of mice induced by scopolamine hydrobromide solution", "assay": "Dry eye model of mice induced by subcutaneous scopolamine hydrobromide solution, eye drop administration", "format": "in vivo, C57BL/6 mice", "method": "The grouping day was recorded as DO. After divided into groups, Animals in each group were subjected to modeling, eye drop administration, scoring of corneal fluorescent staining, tear secretion measurement, etc., according to the experimental settings."}, "[3]": {"assay": "Pre-stability experiment of the crystal form (influencing factors and accelerated conditions, crystal form by XRPD)", "format": "physicochemical", "method": "X-Ray Powder Diffractometer (XRPD) Method in the Present Disclosure\nInstrument model: Bruker D8 Advance X-ray diffractometer\nTest method: About 10 mg of sample is used for XRPD test.\nThe detailed XRPD parameters are as follows:\nThe samples were fully exposed. Samples under the test condition of 40° C., 25° C./92.5% RH, light, light control were taken at 5 days and 10 days for analysis, and samples under the accelerated condition were taken at 1 month, 2 months and 3 months for analysis."}, "[4]": {"test_system": "dry eye model of rat induced by hypertonic sodium chloride solution", "assay": "Hyperosmolar dry eye model of rats induced by hypertonic sodium chloride solution, eye drop administration", "format": "in vivo, SD rats", "method": "20 female SD rats qualified for the adaptability observation were subjected to the scoring of fluorescent staining of the cornea and measurement of tear secretion amount of both eyes for the animals, and animals with abnormalities of problematic fluorescent staining of the cornea and significant differences in tear secretion amount were excluded.\nA pipette was used to draw 20 μL of sodium chloride solution (osmotic pressure of 500 mOsmol/L), which was dropped into the conjunctival sac of both eyes of the animal, 5 times/day, 20 μL/time, with an interval of about 2 hours between each time, for 28 consecutive days. After dropping the solution, the animal's eyelids were passively closed for about 90 s. On the 14th day of the modeling period, the animals were subjected to scoring of fluorescent staining of the cornea of both eyes and measurement of tear secretion amount, and the data were compared with the basic data, and the animals with significant differences in tear secretion amount of both eyes were selected for grouping.\n, the tear secretion amount of both eyes was measured, and the scoring of fluorescent staining of the cornea […]"}, "[5]": {"assay": "25° C. competition experiment of water activity (suspension and beating, XRPD)", "format": "physicochemical", "conditions": "competition of crystal form B and crystal form C", "method": "If the solution was clear, the compound was continued to add until the solution was saturated. […] After addition of a magnetic stir bar, the above suspension sample was placed on a constant temperature mixer (25° C., 700 rpm) for shaking.\nAnd the products obtained with water activity of 0.9 and 1.0 were characterized after drying, and the two were almost the same."}, "[6]": {"conditions": "mice, 1 mg/mL eye drops (G3), D0 (grouping day)"}, "[7]": {"conditions": "mice, 1 mg/mL eye drops (G3), D7"}, "[8]": {"conditions": "mice, 1 mg/mL eye drops (G3), D12"}, "[9]": {"conditions": "mice, 2.5 mg/mL eye drops (G4), D0 (grouping day)"}, "[10]": {"conditions": "mice, 2.5 mg/mL eye drops (G4), D7"}, "[11]": {"conditions": "mice, 2.5 mg/mL eye drops (G4), D12"}, "[12]": {"conditions": "mice, 5 mg/mL eye drops (G5), D0 (grouping day)"}, "[13]": {"conditions": "mice, 5 mg/mL eye drops (G5), D7"}, "[14]": {"conditions": "mice, 5 mg/mL eye drops (G5), D12"}, "[15]": {"conditions": "rats, 1 mg/mL eye drops (G2), D0"}, "[16]": {"conditions": "rats, 1 mg/mL eye drops (G2), D14"}, "[17]": {"conditions": "rats, 1 mg/mL eye drops (G2), D21"}, "[18]": {"conditions": "rats, 5 mg/mL eye drops (G3), D0"}, "[19]": {"conditions": "rats, 5 mg/mL eye drops (G3), D14"}, "[20]": {"conditions": "rats, 5 mg/mL eye drops (G3), D21"}}, "data": [{"smiles": "CC(C)(O)c1ccc(-c2cnc(C(C)(C)O)c(N)c2)cc1N", "values": [{"measurement": "Discomfort in animals after administration of the eye drops", "setting": "[1]", "value": "do not cause any discomfort"}, {"measurement": "Therapeutic effect on the dry eye model of mice (tear secretion amount and corneal damage)", "setting": "[2]; eye drops 1 mg/mL, 2.5 mg/mL, 5 mg/mL", "value": "good therapeutic effect"}, {"measurement": "Scoring of fluorescent staining of the cornea", "setting": "[2]; [6]", "value": "0.50 ± 0.97"}, {"measurement": "Tear secretion amount: wetted length of phenol red cotton thread", "setting": "[2]; [6]", "value": "4.54 ± 1.84", "unit": "mm"}, {"measurement": "Scoring of fluorescent staining of the cornea", "setting": "[2]; [7]", "value": "2.56 ± 1.50##**&"}, {"measurement": "Tear secretion amount: wetted length of phenol red cotton thread", "setting": "[2]; [7]", "value": "2.13 ± 0.69##**& mm"}, {"measurement": "Scoring of fluorescent staining of the cornea", "setting": "[2]; [8]", "value": "2.31 ± 1.35##**&"}, {"measurement": "Tear secretion amount: wetted length of phenol red cotton thread", "setting": "[2]; [8]", "value": "2.72 ± 0.91##**&& mm"}, {"measurement": "Scoring of fluorescent staining of the cornea", "setting": "[2]; [9]", "value": "0.31 ± 0.87"}, {"measurement": "Tear secretion amount: wetted length of phenol red cotton thread", "setting": "[2]; [9]", "value": "4.30 ± 1.08", "unit": "mm"}, {"measurement": "Scoring of fluorescent staining of the cornea", "setting": "[2]; [10]", "value": "2.88 ± 2.53"}, {"measurement": "Tear secretion amount: wetted length of phenol red cotton thread", "setting": "[2]; [10]", "value": "2.14 ± 0.69##**& mm"}, {"measurement": "Scoring of fluorescent staining of the cornea", "setting": "[2]; [11]", "value": "2.56 ± 1.55"}, {"measurement": "Tear secretion amount: wetted length of phenol red cotton thread", "setting": "[2]; [11]", "value": "2.58 ± 0.82##**& mm"}, {"measurement": "Scoring of fluorescent staining of the cornea", "setting": "[2]; [12]", "value": "0.25 ± 0.58"}, {"measurement": "Tear secretion amount: wetted length of phenol red cotton thread", "setting": "[2]; [12]", "value": "4.28 ± 1.41", "unit": "mm"}, {"measurement": "Scoring of fluorescent staining of the cornea", "setting": "[2]; [13]", "value": "2.38 ± 2.09##**&"}, {"measurement": "Tear secretion amount: wetted length of phenol red cotton thread", "setting": "[2]; [13]", "value": "2.73 ± 0.48##**&& mm"}, {"measurement": "Scoring of fluorescent staining of the cornea", "setting": "[2]; [14]", "value": "2.38 ± 1.20##**&"}, {"measurement": "Tear secretion amount: wetted length of phenol red cotton thread", "setting": "[2]; [14]", "value": "2.85 ± 0.57##**&& mm"}, {"measurement": "Concentration of eye drops with the best therapeutic effect", "setting": "[2]; mice, combining tear secretion amount and corneal staining score", "value": 5, "unit": "mg/mL"}, {"measurement": "Crystal Form", "setting": "[3]; 25° C./92.5% RH (open), 5 days", "value": "Crystal Form B"}, {"measurement": "Crystal Form", "setting": "[3]; 25° C./92.5% RH (open), 10 days", "value": "Crystal Form B"}, {"measurement": "Crystal Form", "setting": "[3]; 40° C. (open), 1 month", "value": "Crystal Form B"}, {"measurement": "Crystal Form", "setting": "[3]; 40° C. (open), 10 days", "value": "Crystal Form B"}, {"measurement": "Crystal Form", "setting": "[3]; 40° C./75% RH (open), 1 month", "value": "Crystal Form B"}, {"measurement": "Crystal Form", "setting": "[3]; 40° C./75% RH (open), 2 month", "value": "Crystal Form B"}, {"measurement": "Crystal Form", "setting": "[3]; 40° C./75% RH (open), 3 month", "value": "Crystal Form B"}, {"measurement": "Crystal Form", "setting": "[3]; 60° C./75% RH (open), 1 month", "value": "Crystal Form B"}, {"measurement": "Crystal Form", "setting": "[3]; 60° C./75% RH (open), 2 month", "value": "Crystal Form B"}, {"measurement": "Crystal Form", "setting": "[3]; 60° C./75% RH (open), 3 month", "value": "Crystal Form B"}, {"measurement": "Stability of the crystal form (conclusion)", "setting": "[3]; influencing factors 10 days, 40° C. 1 month, 40° C./75% RH and 60° C./75% RH 3 months", "value": "stable"}, {"measurement": "Crystal Form", "setting": "[3]; light (visible light intensity 5000 lux and ultraviolet intensity 90 W/cm^2, open), 10 days", "value": "Crystal Form B"}, {"measurement": "Crystal Form", "setting": "[3]; light control, 10 days", "value": "Crystal Form B"}, {"measurement": "Therapeutic effect on the dry eye model of rat (tear secretion amount, corneal damage, tear film breakup time)", "setting": "[4]; eye drops 1 mg/mL, 5 mg/mL", "value": "good therapeutic effect"}, {"measurement": "Scoring of fluorescent staining of the cornea", "setting": "[4]; [15]", "value": "0.00 ± 0.00"}, {"measurement": "Tear secretion amount: wetted length of phenol red cotton thread", "setting": "[4]; [15]", "value": "13.78 ± 5.25", "unit": "mm"}, {"measurement": "Scoring of fluorescent staining of the cornea", "setting": "[4]; [16]", "value": "4.75 ± 3.73"}, {"measurement": "Tear secretion amount: wetted length of phenol red cotton thread", "setting": "[4]; [16]", "value": "8.12 ± 2.81", "unit": "mm"}, {"measurement": "Scoring of fluorescent staining of the cornea", "setting": "[4]; [17]", "value": "3.00 ± 2.78"}, {"measurement": "Tear secretion amount: wetted length of phenol red cotton thread", "setting": "[4]; [17]", "value": "9.24 ± 4.07", "unit": "mm"}, {"measurement": "Scoring of fluorescent staining of the cornea", "setting": "[4]; [18]", "value": "0.13 ± 0.35"}, {"measurement": "Tear secretion amount: wetted length of phenol red cotton thread", "setting": "[4]; [18]", "value": "13.87 ± 4.45", "unit": "mm"}, {"measurement": "Scoring of fluorescent staining of the cornea", "setting": "[4]; [19]", "value": "3.88 ± 2.36"}, {"measurement": "Tear secretion amount: wetted length of phenol red cotton thread", "setting": "[4]; [19]", "value": "7.16 ± 2.77", "unit": "mm"}, {"measurement": "Scoring of fluorescent staining of the cornea", "setting": "[4]; [20]", "value": "1.75 ± 1.49"}, {"measurement": "Tear secretion amount: wetted length of phenol red cotton thread", "setting": "[4]; [20]", "value": "11.37 ± 3.26", "unit": "mm"}, {"measurement": "Tear film breakup time", "setting": "[4]; rats, eye drops", "value": "improved"}, {"measurement": "Relative stability of crystal forms (conclusion)", "setting": "[5]", "value": "more stable than the crystal form C of the compound of formula (I)"}]}]}
